Source: patent publication US10011595B2 (Merck Sharp & Dohme Corp., priority 2014, dated 2018)

Biological target: human orexin-2 receptor (Homo sapiens (Human), UniProt O43614)
Test: FLIPR Ca2+ Flux Assay, orexin-2 receptor
Assay type: cell-based
Conditions: CHO cells expressing the human orexin-2 receptor; agonist 70 pM Ala-6,12 orexin-A; read-out: hOX2R FLIPR IC50
Method: In a typical experiment the OX1 and OX2 receptor antagonistic activity of the compounds of the present invention was determined in accordance with the following experimental method. For intracellular calcium measurements, Chinese hamster ovary (CHO) cells expressing the rat orexin-1 receptor or the human orexin-2 receptor, are grown in Iscove's modified DMEM containing 2 mM L-glutamine, […], 1% hypoxanthine-thymidine supplement, 100 U/ml penicillin, 100 μg/ml streptomycin and 10% heat-inactivated fetal calf serum (FCS). The cells are seeded at 20,000 cells/well into Becton-Dickinson black 384-well clear bottom sterile plates coated with poly-D-lysine. All reagents were from GIBCO-Invitrogen Corp. The seeded plates are incubated overnight at 37° C. and 5% CO2. Ala-6,12 human orexin-A as the agonist is prepared as a 1 mM stock solution in 1% bovine serum albumin (BSA) and diluted in assay buffer (HBSS containing 20 mM HEPES, 0.1% BSA and 2.5 mM probenecid, pH7.4) for use in the assay at a final concentration of 70 pM. Test compounds are prepared as 10 mM stock solution in DMSO, then diluted in 384-well plates, first in DMSO, then assay buffer. On the day of the assay, cells are washed 3 times with 100 μl assay buffer and then incubated for 60 min (37° C., 5% CO2) in 60 μl assay buffer containing 1 μM Fluo-4AM ester, 0.02% pluronic acid, and 1% BSA. The dye loading solution is then aspirated and cells are washed 3 times with 100 μl assay buffer. 30 μl of that same buffer is left in each well. Within the Fluorescent Imaging Plate Reader (FLIPR, Molecular Devices), test compounds are added to the plate in a volume of 25 μl, incubated for 5 min and finally 25 μl of agonist is added. Fluorescence is measured for each well at 1 second intervals for 5 minutes and the height of each fluorescence peak is compared to the height of the fluorescence peak induced by 70 pM Ala-6,12 orexin-A with buffer in place of antagonist. For each antagonist, IC50 value (the concentration of compound needed to inhibit 50% of the agonist response) is determined. Alternatively, compound potency can be assessed by a radioligand binding assay (described in Bergman et. al. Bioorg. Med. Chem. Lett. 2008, 18, 1425-1430) in which the inhibition constant (Ki) is determined in membranes prepared from CHO cells expressing either the OX1 or OX2 receptor. The intrinsic orexin receptor antagonist activity of a compound which may be used in the present invention may be determined by these assays.

Chain of human orexin-2 receptor (O43614 whole entry): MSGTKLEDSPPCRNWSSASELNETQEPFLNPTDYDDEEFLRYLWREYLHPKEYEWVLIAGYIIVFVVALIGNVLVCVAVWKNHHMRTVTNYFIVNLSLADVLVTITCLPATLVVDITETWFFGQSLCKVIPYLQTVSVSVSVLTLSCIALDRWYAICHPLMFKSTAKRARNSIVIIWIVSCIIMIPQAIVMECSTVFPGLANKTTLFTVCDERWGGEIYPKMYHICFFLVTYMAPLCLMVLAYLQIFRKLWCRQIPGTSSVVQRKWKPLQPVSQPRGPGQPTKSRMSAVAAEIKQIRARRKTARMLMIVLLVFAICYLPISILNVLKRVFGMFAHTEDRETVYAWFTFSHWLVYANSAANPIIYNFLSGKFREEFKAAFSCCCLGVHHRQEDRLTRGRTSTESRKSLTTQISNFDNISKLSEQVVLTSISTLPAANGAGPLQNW

Q: For CCN(CCN(C)c1nc(C)cc(C)n1)C(=O)c1cccnc1OCC(F)(F)F [Example B-11, N-(2-((4,6-dimethylpyrimidin-2-yl)(methyl)amino)ethyl)-N-ethyl-2-(2,2,2-trifluoroethoxy)nicotinamide], which IC50 is on record?
A: The IC50 was 19.8 nM.

Q: For CCN(CCN(C)c1nccc(C(C)(C)O)n1)C(=O)c1ncccc1-n1nccn1 [Example H-34, N-ethyl-N-[2-[[4-(1-hydroxy-1-methyl-ethyl)pyrimidin-2-yl]-methyl-amino]ethyl]-3-(triazol-2-yl)pyridine-2-carboxamide], which IC50 is on record?
A: Its IC50 is 43 nM.

Q: Which IC50 does the source give for CCN(CCN(C)c1cccc(C(C)(C)O)n1)C(=O)c1ccccc1OCC(F)(F)F [Example I-17, N-ethyl-N-(2-((6-(2-hydroxypropan-2-yl)pyridin-2-yl)(methyl)amino)ethyl)-2-(2,2,2-trifluoroethoxy)benzamide] here?
A: Its IC50 is 326 nM.

Q: CC(C)CN(CCN(C)c1cc(C#N)ccn1)C(=O)c1ccccc1-n1nccn1 [Example G-8, N-(2-((4-cyanopyridin-2-yl)(methyl)amino)ethyl)-N-isobutyl-2-(2H-1,2,3-triazol-2-yl)benzamide] was tested. Which IC50 did it give?
A: The IC50 was 12.2 nM.

Q: How did the IC50 turn out when CCN(CCN(C)c1nc(C)cc(C)n1)C(=O)c1ccccc1C1CC1 [Example B-1, 2-cyclopropyl-N-(2-((4,6-dimethylpyrimidin-2-yl)(methyl)amino)ethyl)-N-ethylbenzamide] was run?
A: Its IC50 is 26.4 nM.

Q: CCN(CCN(C)c1cc(C#N)ccn1)C(=O)c1ccccc1-c1ncc[nH]1 [Example F-24, N-{2-[(4-cyanopyridin-2-yl)(methyl)amino]ethyl}-N-ethyl-2-(1H-imidazol-2-yl)benzamide] was tested. Which IC50 did it give?
A: Its IC50 is 1630 nM.

Q: Which IC50 does the source give for CCN(CCN(C)c1cc(C#N)ccn1)C(=O)c1ccccc1-n1cc(C)nn1 [Example F-21, N-{2-[(4-cyanopyridin-2-yl)(methyl)amino]ethyl}-N-ethyl-2-(4-methyl-1H-1,2,3-triazol-1-yl)benzamide] here?
A: Its IC50 is 341 nM.

Q: Which IC50 does the source give for CCN(CCN(C)c1cc(C#N)ccn1)C(=O)c1ccccc1OCCF [Example F-13, N-{2-[(4-cyanopyridin-2-yl)(methyl)amino]ethyl}-N-ethyl-2-(2-fluoroethoxy)benzamide] here?
A: The IC50 was 48.4 nM.

Q: CCN(CCN(C)c1nccc(C(C)(C)O)n1)C(=O)c1ccccc1C1CC1 [Example H-25, 2-cyclopropyl-N-ethyl-N-(2-((4-(2-hydroxypropan-2-yl)pyrimidin-2-yl)(methyl)amino)ethyl) benzamide] was tested. Which IC50 did it give?
A: The IC50 was 9.1 nM.

Q: Which IC50 does the source give for CCN(CCN(C)c1cc(C#N)ccn1)C(=O)c1ccccc1-n1cccn1 [Example F-12, N-{2-[(4-cyanopyridin-2-yl)(methyl)amino]ethyl}-N-ethyl-2-(1H-pyrazol-1-yl)benzamide] here?
A: Its IC50 is 49.6 nM.

Q: Which IC50 does the source give for CCN(CCN(C)c1nc(C)cc(C)n1)C(=O)c1cccnc1-n1cccn1 [Example B-24, N-{2-[(4,6-dimethylpyrimidin-2-yl)(methyl)amino]ethyl}-N-ethyl-2-(1H-pyrazol-1-yl)pyridine-3-carboxamide] here?
A: Its IC50 is 12.8 nM.

Q: With CCN(CCN(C)c1nccc(C(C)(C)O)n1)C(=O)c1cccnc1OCC(F)F [Example H-16, 2-(2,2-difluoroethoxy)-N-ethyl-N-(2-((4-(2-hydroxypropan-2-yl)pyrimidin-2-yl)(methyl)amino)ethyl) nicotinamide] as the molecule, how does the IC50 read?
A: The IC50 was 24.2 nM.

Q: How did the IC50 turn out when CCN(CCN(C)c1nc(C)cc(C)n1)C(=O)c1nccnc1N1CCCC1 [Example B-25, N-{2-[(4,6-dimethylpyrimidin-2-yl)(methyl)amino]ethyl}-N-ethyl-3-pyrrolidin-1-ylpyrazine-2-carboxamide] was run?
A: Its IC50 is 324 nM.

Q: With CCN(CCN(C)c1nc(OC)cc(OC)n1)C(=O)c1ccccc1-n1nccn1 [Example E-9, N-{2-[(4,6-dimethoxypyrimidin-2-yl)(methyl)amino]ethyl}-N-ethyl-2-(2H-1,2,3-triazol-2-yl)benzamide] as the molecule, how does the IC50 read?
A: The IC50 was 341 nM.

Q: Which IC50 does the source give for CCN(CCN(C)c1cc(C#N)ccn1)C(=O)c1cccc2oc(=O)[nH]c12 [Example F-23, N-{2-[(4-cyanopyridin-2-yl)(methyl)amino]ethyl}-N-ethyl-2-oxo-2,3-dihydro-1,3-benzoxazole-4-carboxamide] here?
A: The IC50 was 10000 nM.

Q: For CCN(CCN(C)c1nccc(C(C)(C)O)n1)C(=O)c1nccnc1-n1cccn1 [Example H-32, N-ethyl-N-(2-((4-(2-hydroxypropan-2-yl)pyrimidin-2-yl)(methyl)amino)ethyl)-3-(1H-pyrazol-1-yl)pyrazine-2-carboxamide], which IC50 is on record?
A: The IC50 was 54 nM.

Q: For CCN(CCN(C)c1nccc(C(C)(C)O)n1)C(=O)c1ccccc1-n1ncnn1 [Example H-29, N-ethyl-N-(2-((4-(2-hydroxypropan-2-yl)pyrimidin-2-yl)(methyl)amino)ethyl)-2-(2H-tetrazol-2-yl)benzamide], which IC50 is on record?
A: Its IC50 is 17 nM.

Q: How did the IC50 turn out when CCN(CCN(C)c1nccc(C(C)(C)O)n1)C(=O)c1ncccc1-c1ccccc1 [Example H-31, N-ethyl-N-(2-((4-(2-hydroxypropan-2-yl)pyrimidin-2-yl)(methyl)amino)ethyl)-3-phenylpicolinamide] was run?
A: The IC50 was 23 nM.

Q: For CCN(CCN(C)c1nc(C)cc(C)n1)C(=O)c1ccccc1N1CCCC1 [Example B-30, N-{2-[(4,6-dimethylpyrimidin-2-yl)(methyl)amino]ethyl}-N-ethyl-2-pyrrolidin-1-ylbenzamide], which IC50 is on record?
A: Its IC50 is 18.5 nM.

Q: Which IC50 does the source give for CCCCN(CCN(C)c1cc(C#N)ccn1)C(=O)c1ccccc1-n1nccn1 [Example G-5, N-butyl-N-(2-((4-cyanopyridin-2-yl)(methyl)amino)ethyl)-2-(2H-1,2,3-triazol-2-yl)benzamide] here?
A: The IC50 was 19.8 nM.

Q: CCN(CCN(C)c1nc(C)cc(C)n1)C(=O)c1cccnc1OC(C)C [Example B-5, N-(2-((4,6-dimethylpyrimidin-2-yl)(methyl)amino)ethyl)-N-ethyl-2-isopropoxynicotinamide] was tested. Which IC50 did it give?
A: Its IC50 is 80 nM.

Q: With CCN(CCN(C)c1nc(Cl)cc(N(C)C)n1)C(=O)c1ccccc1-n1nccn1 [Example E-11, N-(2-{[4-chloro-6-(dimethylamino)pyrimidin-2-yl](methyl)amino}ethyl)-N-ethyl-2-(2H-1,2,3-triazol-2-yl)benzamide] as the molecule, how does the IC50 read?
A: Its IC50 is 18.4 nM.

Q: Which IC50 does the source give for CCOc1ccccc1C(=O)N(CC)CCN(C)c1cccc(C(C)(C)O)n1 [Example I-18, 2-ethoxy-N-ethyl-N-(2-((6-(2-hydroxypropan-2-yl)pyridin-2-yl)(methyl)amino)ethyl)benz-amide] here?
A: Its IC50 is 154 nM.

Q: For CCN(CCN(C)c1nccc(C(C)(C)O)n1)C(=O)c1cccnc1-n1cccn1 [Example H-33, N-ethyl-N-[2-[[4-(1-hydroxy-1-methyl-ethyl)pyrimidin-2-yl]-methyl-amino]ethyl]-2-pyrazol-1-yl-pyridine-3-carboxamide], which IC50 is on record?
A: The IC50 was 37 nM.

Q: Which IC50 does the source give for CCN(CCN(C)c1nc(C)cc(C)n1)C(=O)c1cccnc1-c1ccccc1 [Example B-9, N-(2-((4,6-dimethylpyrimidin-2-yl)(methyl)amino)ethyl)-N-ethyl-2-phenylnicotinamide] here?
A: The IC50 was 26.4 nM.

Q: How did the IC50 turn out when CCN(CCN(C)c1nc(C)cc(C)n1)C(=O)c1ccccc1-c1ncccn1 [Example B-32, N-{2-[(4,6-dimethylpyrimidin-2-yl)(methyl)amino]ethyl}-N-ethyl-2-pyrimidin-2-ylbenzamide] was run?
A: The IC50 was 19.5 nM.

Q: For CCN(CCN(C)c1cc(C#N)ccn1)C(=O)c1ccccc1-n1nccn1 [Example E-1, N-(2-((4-cyanopyridin-2-yl)(methyl)amino)ethyl)-N-ethyl-2-(2H-1,2,3-triazol-2-yl)benzamide], which IC50 is on record?
A: Its IC50 is 14.5 nM.

Q: How did the IC50 turn out when CCN(CCN(C)c1ncc(Cl)c(C(F)(F)F)n1)C(=O)c1ccccc1-n1nccn1 [Example E-16, N-(2-{[5-chloro-4-(trifluoromethyl)pyrimidin-2-yl](methyl)amino}ethyl)-N-ethyl-2-(2H-1,2,3-triazol-2-yl)benzamide] was run?
A: Its IC50 is 84.7 nM.

Q: CCN(CCN(C)c1nccc(C(C)(C)O)n1)C(=O)c1cccnc1CC(F)(F)F [Example H-23, N-ethyl-N-(2-((4-(2-hydroxypropan-2-yl)pyrimidin-2-yl)(methyl)amino)ethyl)-2-(2,2,2-trifluoroethyl)nicotinamide] was tested. Which IC50 did it give?
A: The IC50 was 179 nM.

Q: CCN(CCN(CC(F)F)c1nc(C)cc(C)n1)C(=O)c1ccccc1-n1nccn1 [Example D-1, N-(2-((2,2-difluoroethyl)(4,6-dimethylpyrimidin-2-yl)amino)ethyl)-N-ethyl-2-(2H-1,2,3-triazol-2-yl)benzamide] was tested. Which IC50 did it give?
A: Its IC50 is 56.1 nM.

Q: Which IC50 does the source give for CCN(CCN(C)c1cccc(C(C)(C)O)n1)C(=O)c1ccccc1-n1ncnn1 [Example I-23, N-ethyl-N-(2-((6-(2-hydroxypropan-2-yl)pyridin-2-yl)(methyl)amino)ethyl)-2-(2H-tetrazol-2-yl)benzamide] here?
A: The IC50 was 69.6 nM.
